Assay results reported in publication PMC5206489 (Journal of chemical information and modeling, 2016).

Columns and labels:
[1] = test system: HIV-1YU2; conditions: read-out: IC50 (HIV-1YU2); viral infectivity, HIV-1YU2 strain; cited from earlier work
[2] = biological target: core monomeric gp120; conditions: binding affinity on gp120 core monomer; cited from earlier work
[3] = test system: BG505 SOSIP.664; test: Competition ELISA, BG505 SOSIP.664 binding to CD4IgG2; set-up: species or system HIV-1; conditions: full dose response not achieved owing to solubility limits

SMILES	IC50 [1] [nM]	Kd [2] [nM]	inhibition of SOSIP trimer protein binding to sCD4 (in words) [3]
CC1(C)CC(NC(=O)C(=O)Nc2ccc(Cl)cc2)CC(C)(C)N1 [compound 1]	> 100000	3700	weaker inhibition
CN(Cc1ccc2c(c1)C[C@H](CN=C(N)N)[C@H]2NC(=O)C(=O)Nc1ccc(Cl)c(F)c1)C(=N)N [compound 5]	800 ± 100	100	
